Consider eight compounds from patent publication US10729738B2, “Hindered disulfide drug conjugates” (priority 2015, dated 2020).

This data set in a line: In vitro disulfide cleavage and immolation by incubation with cysteine or glutathione (LC/MS). The class given is physicochemical. The settings on record: for Percentage of all products: pH 7.0, 37° C. On the procedure:
In a first phase of the experiment, disulfide cleavage and immolation by incubation with cysteine and glutathione—with the thiol concentrations mimic those in plasma and cancer cells—was investigated using unconjugated small molecule model systems with para-nitro-pyridyl disulfide-containing linker drug analogs 1, 2 and 11 below. In particular, cleavage and immolation was evaluated in vitro by incubation at […] with cysteine ([…] or 200 μM) or glutathione (GSH, 4 mM) in 100 mM Tris buffer pH 7.0 containing 5% methanol at 37° C. Aliquots were taken at specified time points and the samples were analyzed by LC/MS on Sciex TripleTOF 5600 on a Hypersil Gold C18 column (100×2.1, […], Thermo Scientific). The column was eluted by a gradient of buffer A (0.1% formic acid in 10 mM ammonium acetate) to buffer B (0.1% formic acid in 10 mM ammonium acetate in 90% acetonitrile), 5% B 0-0.5 min, 5-25% B 0.5-8 min, 25-75% B 8-13 min, and 75-95% B 13-13.5 min, 95% B 13.5-14.5 min, 95-5% B 14.5-15 min at 0.4 mL/min. Under these conditions, para-nitropyridyl thiol was eluted at 5.3 min. All products (compounds 1, 2, 11, 3a, 3b, 4a, 4b, 12a, 12 b, 6, 7, 13 and 8) were separated and characterized by LC/MS/MS in a positive ESI ion mode. All analytes had the protonated molecular MH^+ as the major species with little source fragmentation. Full scan accurate mass peak areas were used to estimate relative abundance of each component and the disappearance of 1, 2, and 11 estimated relative full scan peak areas was consistent with that estimated based on the relative abundance compared to time 0 by MS or UV. The results are reported in Table 15 below and the analytical results are presented in Table 16 below where “Cmpd” refers to compound, “RT” refers to retention time in minutes, and “Calc. Mass” refers to calculated mass. The relative abundance of disulfide cleavage and immolation products over time were evaluated and are disclosed in FIGS. 12A to 12C, 13A to 13C, 14A to 14C and 15A to 15C where the products were monitored by LC/MS from incubations of linker drugs 1, 2, and 11 at pH 7.0 and 37° C. in the presence of: 0.2 mM cysteine (FIGS. 12A, 12B and 12C); 0.03 mM cysteine (FIGS. 13A, 13B and 13C); 4 mM glutathione (FIGS. 14A, 14B and 14C); and 0.03 mM glutathione (FIGS. 15A, 15B and 15C). In FIGS. 12A to 12C, 13A to 13C, 14A to 14C and 15A to 15C, compound reference numbers 1, 2, 3a, 3b, 4a, 4b, 6, 7, 8, 11, 12a, 12b and 13 correspond to the structures below.

As for `C=C1CC2C=Nc3cc(OCCCCCOc4cc5c(cc4OC)C(=O)N4CC(=C)CC4C(O)N5C(=O)OCC(C)SSc4ccc([N+](=O)[O-])cn4)c(OC)cc3C(=O)N2C1` (stereo not shown) [Compound 1], the “Percentage of all products” value by setting is: (30 μM cysteine, 1 h) 10.6%; (30 μM cysteine, 4 h) 7.9%; (30 μM cysteine, 24 h) 4.5%; (200 μM cysteine, 1 h) 2.8%; (200 μM cysteine, 4 h) 1.0%; (200 μM cysteine, 24 h) 0%. In addition, the “Percentage of all products” value is listed as 9.1% (4 mM GSH, 1 h); 0.9% (4 mM GSH, 4 h); 0.1% (4 mM GSH, 24 h).
As to `C=C1C[C@H]2C=Nc3cc(OCCCCCOc4cc5c(cc4OC)C(=O)N4CC(=C)C[C@H]4C(O)N5C(=O)OCC4(SSc5ccc([N+](=O)[O-])cn5)CC4)c(OC)cc3C(=O)N2C1` (stereo partly shown) [Compound 2], the “Percentage of all products” value reads like this: (30 μM cysteine, 1 h) 21.1%; (30 μM cysteine, 4 h) 19.1%; (30 μM cysteine, 24 h) 12.0%; (200 μM cysteine, 1 h) 16.1%; (200 μM cysteine, 4 h) 10.8%; (200 μM cysteine, 24 h) 7.0%. Besides, the “Percentage of all products” value reads like this: (4 mM GSH, 1 h) 17.9%; (4 mM GSH, 4 h) 9.0%; (4 mM GSH, 24 h) 4.3%.
Take `C=C1CC2C=Nc3cc(OCCCCCOc4cc5c(cc4OC)C(=O)N4CC(=C)CC4C(O)N5C(=O)OCC(C)SSCC(N)C(=O)O)c(OC)cc3C(=O)N2C1` (stereo not shown) [Compound 3a]: the “Percentage of all products” value stood at 80.1% (30 μM cysteine, 1 h); 79.9% (30 μM cysteine, 4 h); 75.0% (30 μM cysteine, 24 h); 5.6% (200 μM cysteine, 1 h); 1.9% (200 μM cysteine, 4 h); 0% (200 μM cysteine, 24 h).
`C=C1CC2C=Nc3cc(OCCCCCOc4cc5c(cc4OC)C(=O)N4CC(=C)CC4C(O)N5C(=O)OCC(C)SSCC(NC(=O)CCC(N)C(=O)O)C(=O)NCC(=O)O)c(OC)cc3C(=O)N2C1` (stereo not shown) [Compound 3b]: the “Percentage of all products” value is 0.3% (4 mM GSH, 1 h); 0% (4 mM GSH, 4 h); 0% (4 mM GSH, 24 h).
Turning to `C=C1C[C@H]2C=Nc3cc(OCCCCCOc4cc5c(cc4OC)C(=O)N4CC(=C)C[C@H]4C(O)N5C(=O)OCC4(SSC[C@H](N)C(=O)O)CC4)c(OC)cc3C(=O)N2C1` (stereo partly shown) [Compound 4a], the “Percentage of all products” value reads like this: (30 μM cysteine, 1 h) 73.7%; (30 μM cysteine, 4 h) 71.1%; (30 μM cysteine, 24 h) 75.9%; (200 μM cysteine, 1 h) 39.1%; (200 μM cysteine, 4 h) 15.2%; (200 μM cysteine, 24 h) 3.2%.
As for `C=C1C[C@H]2C=Nc3cc(OCCCCCOc4cc5c(cc4OC)C(=O)N4CC(=C)C[C@H]4C(O)N5C(=O)OCC4(SSC[C@H](NC(=O)CC[C@H](N)C(=O)O)C(=O)NCC(=O)O)CC4)c(OC)cc3C(=O)N2C1` (stereo partly shown) [Compound 4b], the “Percentage of all products” value worked out at 1.1% (4 mM GSH, 1 h); 0.4% (4 mM GSH, 4 h); 1.0% (4 mM GSH, 24 h).
Turning to `C=C1CC2C=Nc3cc(OCCCCCOc4cc5c(cc4OC)C(=O)N4CC(=C)CC4C(O)N5C(=O)OCC(C)S)c(OC)cc3C(=O)N2C1` (stereo not shown) [Compound 6], the “Percentage of all products” value is given as 2.5% (30 μM cysteine, 1 h); 1.7% (30 μM cysteine, 4 h); 0.5% (30 μM cysteine, 24 h); 7.8% (200 μM cysteine, 1 h); 2.8% (200 μM cysteine, 4 h); 0.1% (200 μM cysteine, 24 h). Further, the “Percentage of all products” value stood at 2.6% (4 mM GSH, 1 h); 0% (4 mM GSH, 4 h); 0% (4 mM GSH, 24 h). For the setting “incubation with cysteine or glutathione”, the “Immolation of thiol intermediate” value is given as “immolated quickly”.
Take `C=C1CC2C=Nc3cc(OCCCCCOc4cc5c(cc4OC)C(=O)N4CC(=C)CC4C=N5)c(OC)cc3C(=O)N2C1` (stereo not shown) [Compound 8, reference compound]: the “Percentage of all products” value was 6.8% (30 μM cysteine, 1 h, listed as 1 to 8, compound 1 to 8 conversion); 0.1% (30 μM cysteine, 1 h, listed as 2 to 8, compound 2 to 8 conversion); 3.6% (30 μM cysteine, 1 h, listed as 11 to 8, compound 11 to 8 conversion); 10.5% (30 μM cysteine, 4 h, listed as 1 to 8, compound 1 to 8 conversion); 0.1% (30 μM cysteine, 4 h, listed as 2 to 8, compound 2 to 8 conversion); 8.7% (30 μM cysteine, 4 h, listed as 11 to 8, compound 11 to 8 conversion). The “Percentage of all products” value runs as follows: (30 μM cysteine, 24 h, listed as 1 to 8, compound 1 to 8 conversion) 20.5%; (30 μM cysteine, 24 h, listed as 2 to 8, compound 2 to 8 conversion) 0.5%; (30 μM cysteine, 24 h, listed as 11 to 8, compound 11 to 8 conversion) 27.6%; (200 μM cysteine, 1 h, listed as 1 to 8, compound 1 to 8 conversion) 83.7%; (200 μM cysteine, 1 h, listed as 2 to 8, compound 2 to 8 conversion) 0.1%; (200 μM cysteine, 1 h, listed as 11 to 8, compound 11 to 8 conversion) 68.8%. The “Percentage of all products” value is reported as 94.4% (200 μM cysteine, 4 h, listed as 1 to 8, compound 1 to 8 conversion); 0.3% (200 μM cysteine, 4 h, listed as 2 to 8, compound 2 to 8 conversion); 83.2% (200 μM cysteine, 4 h, listed as 11 to 8, compound 11 to 8 conversion); 99.9% (200 μM cysteine, 24 h, listed as 1 to 8, compound 1 to 8 conversion); 2.5% (200 μM cysteine, 24 h, listed as 2 to 8, compound 2 to 8 conversion); 97.7% (200 μM cysteine, 24 h, listed as 11 to 8, compound 11 to 8 conversion). Further, the “Percentage of all products” value reads like this: (4 mM GSH, 1 h, listed as 1 to 8, compound 1 to 8 conversion) 88.0%; (4 mM GSH, 1 h, listed as 2 to 8, compound 2 to 8 conversion) 0.2%; (4 mM GSH, 1 h, listed as 11 to 8, compound 11 to 8 conversion) 86.7%; (4 mM GSH, 4 h, listed as 1 to 8, compound 1 to 8 conversion) 98.5%; (4 mM GSH, 4 h, listed as 2 to 8, compound 2 to 8 conversion) 0.4%; (4 mM GSH, 4 h, listed as 11 to 8, compound 11 to 8 conversion) 94.9%. For the same compound, the “Percentage of all products” value worked out at 99.9% (4 mM GSH, 24 h, listed as 1 to 8, compound 1 to 8 conversion); 2.3% (4 mM GSH, 24 h, listed as 2 to 8, compound 2 to 8 conversion); 99.3% (4 mM GSH, 24 h, listed as 11 to 8, compound 11 to 8 conversion).
